{
  "source": "PubChem BioAssay AID1963829",
  "about": "(Molecular Pharmacology Branch, DTP, NCI, 2024);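 note: spheroids exposed to drugs for seven days before viability read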;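 for viability, T/C: 100% = DMSO vehicle control wells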",
  "test_system": "935938-334-R-J1-PDC complex spheroid viability",
  "assay": "Anticancer human tumor 935938-334-R-J1-PDC patient-derived small intestine adenocarcinoma cell line growth inhibition [POLQ]",
  "conditions": "for IC50: curve of first compound; for viability, T/C: stronger effect = lower value",
  "procedure": "Multicellular complex tumor spheroid response to Polymerase (POL) inhibitors (novobiocin, ART-558, RP6685) in combination with a variety of drugs and investigational agents in selected tumor cell lines\nThe POL inhibitors (novobiocin, ART-558, and RP6685) were evaluated both individually and in combination with standard of care and investigational anticancer small molecules within a complex spheroid model of solid tumors. . Complex spheroids include a stromal component modeled by human endothelial cells (HUVEC) and fibroblasts modeled by human mesenchymal stem cells (MSCs). The concentration ranges selected for each drug and investigational agent were based upon clinically achievable concentrations if the clinical Cmax of the agent was known.\nCompounds. The drugs and investigational agents: novobiocin (NSC847541), ART-558 (NSC835418), RP-6685 (NSC848927), peposertib (NSC802822), ceralasertib (NSC780249), elimusertib (NSC800525), camonsertib (NSC841442), AZD-1390 (NSC803789), olaparib (NSC753686), talazoparib (NSC767125), rucaparib (NSC756644), sotorasib (NSC818433), MRTX-1133 (NSC836407), SN-38 (NSC673596), topotecan (NSC609699), epotoside (NSC141540), doxorubicin (NSC123127), gemcitabine (NSC613327), 5-fluorouracil (NSC19893), paclitaxel (NSC125973), vemurafenib (NSC761431), MSA-2 (NSC828583), SN-011 (NSC837082), adavosertib (NSC754352), prexasertib (NSC758257), carboplatin (NSC241240) and oxaliplatin (NSC266046), were obtained from the National Cancer Institute (NCI) Developmental Therapeutics Program Chemical Repository (21). The FDA-approved anticancer drug set is available from the Developmental Therapeutics Program at https://dtp.cancer.gov/organization/dscb/obtaining/. […] The stock solutions were prepared in dimethyl sulfoxide (DMSO, Sigma-Aldrich, St. Louis, MO, cat. D2650), except for the platinum compounds which were prepared in saline (Quality Biological, Gaithersburg, MD, cat. 114-055-101), at 800-fold the tested concentration and stored at -70 degrees C prior to their use. All drugs and investigational agents were tested over a range starting from a high concentration at or near the clinical Cmax and decreasing in half-log increments. If the clinical Cmax for an agent had not been determined, the highest concentration tested was 10 microM, except for SN-38, which was tested at a high concentration of 1 microM.\nCell Culture. All cells were maintained in an incubator at 37 degrees C and 5% CO2 with 95% humidity. The PDC lines were cultured according to standard operating procedures established by the NCI PDMR (https://pdmr.cancer.gov). Table 3 of the manuscript, lists the cell lines along with the number of the three cell types plated to form the mct-spheroids and media for tumor cell growth. After thawing, all PDC lines, except 997537-175-T-J1-PDC and 415267-285-R-J2-PDC, were cultured in Matrigel-coated flasks prepared with a working solution of 1X Ham's F-12 nutrient mix, without supplementation (Thermo Fisher Scientific, cat. 11765054), 100 U/mL penicillin-streptomycin (Thermo Fisher Scientific, cat. 15140122), and 2.5% Matrigel (Corning Inc., Corning, NY, cat. 354248) for the first three passages. The two PDC lines 997537-175-T-J1-PDC and 415267-285-R-J2-PDC were cultured on uncoated flasks. The 857933-349-R-J2-PDC line was cultured in 6C/Colon 1B media containing advanced DMEM/F-12 (Thermo Fisher Scientific, cat. 12634028), 10 mM HEPES (Thermo Fisher Scientific, cat. 15630080), 1X GlutaMAX supplement (Thermo Fisher Scientific, cat. 35050061), 0.1 mg/mL primocin (InvivoGen, San Diego, CA, cat. ant-pm-2), 10% defined fetal bovine serum, heat inactivated (HyClone Laboratories Inc., Logan, UT, cat. SH30070.03HI), 50% L-WRN conditioned media (ATCC, cat. CRL-3276), 1.25 mM N-Acetyl-L-cysteine (Sigma-Aldrich, cat. A9165), 10 mM nicotinamide (Sigma-Aldrich, cat. N0636), 1X B-27 supplement (Thermo Fisher Scientific, cat. 17504044), 1X N-2 supplement (Thermo Fisher Scientific, cat. […]",
  "data": [
    {"smiles": "C#Cc1c(F)ccc2cc(O)cc(-c3ncc4c(N5CC6CCC(C5)N6)nc(OCC56CCCN5CC(F)C6)nc4c3F)c12", "note": "(configuration not stated) + Cc1cccc(N(C)C(=O)C2C(O)CCN2c2nc(C)cc(C(F)(F)F)c2C#N)c1", "values": [
      {"measurement": "IC50", "setting": "second compound 0.0316 µM", "value": 2.41, "unit": "µM"},
      {"measurement": "IC50", "setting": "second compound 0.1 µM", "value": 3.39, "unit": "µM"},
      {"measurement": "IC50", "setting": "second compound 0.316 µM", "value": 1.49, "unit": "µM"},
      {"measurement": "IC50", "setting": "second compound 1 µM", "value": 1.73, "unit": "µM"},
      {"measurement": "IC50", "setting": "second compound 3.16 µM", "value": 2.02, "unit": "µM"},
      {"measurement": "IC50", "setting": "second compound 10 µM", "value": 0.576, "unit": "µM"},
      {"measurement": "viability, T/C", "setting": "second compound 0.0316 µM, first compound 0.0316 µM", "value": 89.8, "unit": "%"},
      {"measurement": "viability, T/C", "setting": "second compound 0.0316 µM, first compound 0.1 µM", "value": 97.8, "unit": "%"},
      {"measurement": "viability, T/C", "setting": "second compound 0.0316 µM, first compound 0.316 µM", "value": 65.1, "unit": "%"},
      {"measurement": "viability, T/C", "setting": "second compound 0.0316 µM, first compound 1 µM", "value": 75.2, "unit": "%"},
      {"measurement": "viability, T/C", "setting": "second compound 0.0316 µM, first compound 3.16 µM", "value": 40.2, "unit": "%"},
      {"measurement": "viability, T/C", "setting": "second compound 0.0316 µM, first compound 10 µM", "value": 29.7, "unit": "%"},
      {"measurement": "viability, T/C", "setting": "second compound 0.1 µM, first compound 0.0316 µM", "value": 80.3, "unit": "%"},
      {"measurement": "viability, T/C", "setting": "second compound 0.1 µM, first compound 0.1 µM", "value": 75.2, "unit": "%"},
      {"measurement": "viability, T/C", "setting": "second compound 0.1 µM, first compound 0.316 µM", "value": 62, "unit": "%"},
      {"measurement": "viability, T/C", "setting": "second compound 0.1 µM, first compound 1 µM", "value": 60.9, "unit": "%"},
      {"measurement": "viability, T/C", "setting": "second compound 0.1 µM, first compound 3.16 µM", "value": 53.4, "unit": "%"},
      {"measurement": "viability, T/C", "setting": "second compound 0.1 µM, first compound 10 µM", "value": 39.4, "unit": "%"},
      {"measurement": "viability, T/C", "setting": "second compound 0.316 µM, first compound 0.0316 µM", "value": 97.5, "unit": "%"},
      {"measurement": "viability, T/C", "setting": "second compound 0.316 µM, first compound 0.1 µM", "value": 88.9, "unit": "%"},
      {"measurement": "viability, T/C", "setting": "second compound 0.316 µM, first compound 0.316 µM", "value": 87.6, "unit": "%"},
      {"measurement": "viability, T/C", "setting": "second compound 0.316 µM, first compound 1 µM", "value": 54.6, "unit": "%"},
      {"measurement": "viability, T/C", "setting": "second compound 0.316 µM, first compound 3.16 µM", "value": 41.9, "unit": "%"},
      {"measurement": "viability, T/C", "setting": "second compound 0.316 µM, first compound 10 µM", "value": 33.4, "unit": "%"},
      {"measurement": "viability, T/C", "setting": "second compound 1 µM, first compound 0.0316 µM", "value": 92, "unit": "%"},
      {"measurement": "viability, T/C", "setting": "second compound 1 µM, first compound 0.1 µM", "value": 75, "unit": "%"},
      {"measurement": "viability, T/C", "setting": "second compound 1 µM, first compound 0.316 µM", "value": 64.3, "unit": "%"},
      {"measurement": "viability, T/C", "setting": "second compound 1 µM, first compound 1 µM", "value": 64.8, "unit": "%"},
      {"measurement": "viability, T/C", "setting": "second compound 1 µM, first compound 3.16 µM", "value": 36.5, "unit": "%"},
      {"measurement": "viability, T/C", "setting": "second compound 1 µM, first compound 10 µM", "value": 35.5, "unit": "%"},
      {"measurement": "viability, T/C", "setting": "second compound 3.16 µM, first compound 0.0316 µM", "value": 72.5, "unit": "%"},
      {"measurement": "viability, T/C", "setting": "second compound 3.16 µM, first compound 0.1 µM", "value": 81.1, "unit": "%"},
      {"measurement": "viability, T/C", "setting": "second compound 3.16 µM, first compound 0.316 µM", "value": 54.4, "unit": "%"},
      {"measurement": "viability, T/C", "setting": "second compound 3.16 µM, first compound 1 µM", "value": 70.7, "unit": "%"},
      {"measurement": "viability, T/C", "setting": "second compound 3.16 µM, first compound 3.16 µM", "value": 37.3, "unit": "%"},
      {"measurement": "viability, T/C", "setting": "second compound 3.16 µM, first compound 10 µM", "value": 31.8, "unit": "%"},
      {"measurement": "viability, T/C", "setting": "second compound 10 µM, first compound 0.0316 µM", "value": 85.4, "unit": "%"},
      {"measurement": "viability, T/C", "setting": "second compound 10 µM, first compound 0.1 µM", "value": 73.7, "unit": "%"},
      {"measurement": "viability, T/C", "setting": "second compound 10 µM, first compound 0.316 µM", "value": 61.5, "unit": "%"},
      {"measurement": "viability, T/C", "setting": "second compound 10 µM, first compound 1 µM", "value": 38.6, "unit": "%"},
      {"measurement": "viability, T/C", "setting": "second compound 10 µM, first compound 3.16 µM", "value": 36.6, "unit": "%"},
      {"measurement": "viability, T/C", "setting": "second compound 10 µM, first compound 10 µM", "value": 29.6, "unit": "%"}
    ]}
  ]
}
